Data from US5189044A, “Isoquinoline-1,3-dione acetyl carbamates useful as aldose reductase inhibitors” (American Home Products Corporation, priority 1992, dated 1993).

Experiments:
aldose reductase = conditions: 10^-5 M; aldose reductase from bovine lens
Procedure: (c) The polyol determination was performed by a modification of the procedure of M. Kraml and L. Cosyns, Clin. Biochem., 2,373 (1969). Only two minor reagent changes were made: (a) The rinsing mixture was an aqueous 5% (w/v) trichloroacetic acid solution and (b) the stock solution was prepared by dissolving 25 mg of dulcitol in 100 ml of an aqueous trichloroacetic acid solution. [N.B.: For each experiment the average value found in the tissue from rats fed the glucose diet was subtracted from the individual values found in the corresponding tissue in galactose-fed rats to obtain the amount of polyol accumulated.] […] In the present case the procedure of Hayman and Kinoshita was modified in that the final chromatography step was omitted in the preparation of the enzyme from bovine lens.

[1] = test system: dulcitol accumulation in the sciatic nerve; experiment: galactosemic rats, dulcitol (galactitol) accumulation in sciatic nerve; assay type: in vivo, rat (Sprague-Dawley); conditions: 4 days, vs untreated galactosemic rats
Source text: (§1) The aldose reductase inhibiting property of the compounds of this invention and the utilization of the compounds in preventing, diminishing and alleviating diabetic complications are demonstrable in experiments using galactosemic rats, see Dvornik et al., Science, 182, 1146 (1973). Such experiments are exemplified hereinbelow after the listing of the following general comments pertaining to these experiments:
(§2) (a) Four or more groups of six male rats, 50-70 g, Sprague-Dawley strain, were used. The first group, the control group, was fed a mixture of laboratory chow (Rodent Laboratory Chow, Purina) and glucose at 20% (w/w %) concentration. The untreated galactosemic group was fed a similar diet in which galactose is substituted for glucose. The third group was fed a diet prepared by mixing a given amount of the test compound with the galactose containing diet. The concentration of the galactose in the diet of the treated groups was the same as that for the untreated galactosemic group.
(§3) (b) After four days, the animals were killed by euthanization. The lenses were removed from the eyes and weighed. The sciatic nerves were dissected as completely as possible and weighed. Both tissues when frozen can be kept up to two weeks before being analyzed for dulcitol.
(§4) The figures under N and D represent the percentage decrease of dulcitol accumulation in the tissues of the sciatic nerve and diaphragm, respectively, for treated rats as compared to untreated rats.

[2] = test system: dulcitol accumulation in the diaphragm; experiment: galactosemic rats, dulcitol (galactitol) accumulation in diaphragm; assay type: in vivo, rat (Sprague-Dawley); conditions: 4 days, vs untreated galactosemic rats
Source text: as §1, §2, §3, §4

| SMILES | % Inhibition in vitro (aldose reductase) | % Lowering Galacitol Accumulation in Vivo, Sciatic Nerve ([1]; 49.3 mg/kg/day in diet) | % Lowering Galacitol Accumulation in Vivo, Sciatic Nerve ([1]; 93.6 mg/kg/day in diet) | % Lowering Galacitol Accumulation in Vivo, Diaphragm ([2]; 49.3 mg/kg/day in diet) | % Lowering Galacitol Accumulation in Vivo, Diaphragm ([2]; 93.6 mg/kg/day in diet) | % Lowering Galacitol Accumulation in Vivo, Sciatic Nerve ([1]; 48.8 mg/kg/day in diet) | % Lowering Galacitol Accumulation in Vivo, Sciatic Nerve ([1]; 96.6 mg/kg/day in diet) | % Lowering Galacitol Accumulation in Vivo, Diaphragm ([2]; 48.8 mg/kg/day in diet) | % Lowering Galacitol Accumulation in Vivo, Diaphragm ([2]; 96.6 mg/kg/day in diet) |
| --- | --- | --- | --- | --- | --- | --- | --- | --- | --- |
| COC(=O)NC(=O)CC1C(=O)N(Cc2nc3cc(C(F)(F)F)ccc3s2)C(=O)c2ccc(F)cc21 (stereo not shown) [F] | 83% | 39% | 59% | 74% | 81% |  |  |  |  |
| COC(=O)NC(=O)CC1C(=O)N(Cc2nc3cc(C(F)(F)F)ccc3s2)C(=O)c2ccccc21 (stereo not shown) [H] | 95% |  |  |  |  | 61% | 73% | 81% | 87% |
